Results published in PubChem BioAssay (NCI).
Values joined by “and” are separate entries in the source; they are usually repeats but may differ in a detail not shown here. Equal values may be shown once.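 Dose response: 5 concentrations. Exposure: 48 h. Format: 96-well plates. Endpoint: linear interpolation; highest concentration if not reached. Abbreviation: GI50, concentration required for 50% inhibition of growth. TGI: total growth inhibition.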

Key:
Experiment in all cases: DTP human tumour cell line panel, 48 h
MDA-MB-435 = system: MDA-MB-435
CCRF-CEM leukemia = system: CCRF-CEM leukemia
MOLT-4 leukemia = system: MOLT-4 leukemia
HCT-116 colon = system: HCT-116 colon
NCI-H226 lung = system: NCI-H226 lung
BT-549 breast = system: BT-549 breast
ACHN renal = system: ACHN renal
OVCAR-5 ovarian = system: OVCAR-5 ovarian
PC-3 prostate = system: PC-3 prostate
LOX IMVI melanoma = system: LOX IMVI melanoma

SMILES	GI50 (MDA-MB-435)	TGI (MDA-MB-435)	GI50 (CCRF-CEM leukemia)	TGI (CCRF-CEM leukemia)	GI50 (MOLT-4 leukemia)	TGI (MOLT-4 leukemia)	GI50 (HCT-116 colon)	TGI (HCT-116 colon)	GI50 (NCI-H226 lung)	TGI (NCI-H226 lung)	GI50 (BT-549 breast)	TGI (BT-549 breast)	GI50 (ACHN renal)	TGI (ACHN renal)	GI50 (OVCAR-5 ovarian)	TGI (OVCAR-5 ovarian)	GI50 (PC-3 prostate)	TGI (PC-3 prostate)	GI50 (LOX IMVI melanoma)	TGI (LOX IMVI melanoma)
O=C1C(Cl)=C(Nc2cc(Cl)ccc2O)C(=O)N1Cc1ccccc1	19 µM	34.9 µM	12.5 µM	54.9 µM	29.7 µM	> 81.9 µM	19.4 µM	35.6 µM	8.66 µM	21.9 µM	20.5 µM	44.3 µM	17.2 µM	31.9 µM	18.8 µM	35.4 µM	16.3 µM	32.6 µM	16.7 µM	32.2 µM
c1cc(C2CCCCC2)ccc1-c1cnc2nonc2n1	0.237 µM	0.65 µM	0.408 µM	> 93.8 µM	0.393 µM	> 56.5 µM	0.468 µM	1.93 µM	1.75 µM	4.22 µM	1.29 µM	3.25 µM	1.14 µM	2.39 µM	1.7 µM	4.04 µM	0.789 µM	2.56 µM	0.527 µM	1.74 µM
CC(C)c1[nH]nc2c(NCc3ccc(-c4ccccn4)cc3)nc(SCCN)nc12	0.00422 µM	1.08 µM and 1.07 µM	0.00978 µM	15.1 µM	0.00505 µM	0.169 µM and 0.102 µM	0.0233 µM and 0.0196 µM	10.6 µM	0.0404 µM and 0.0279 µM	0.0985 µM	0.0322 µM and 0.067 µM	0.168 µM and 0.642 µM	0.273 µM and 0.286 µM	4.7 µM	0.0472 µM and 0.0385 µM	12.8 µM	0.0257 µM	4.11 µM and 12.3 µM	0.00553 µM	2.62 µM and 1.65 µM
CC(C)(O)CCc1cccc(C(=O)c2cnn(-c3ccc(F)cc3)c2N)c1	> 25 µM	> 25 µM	> 25 µM	> 25 µM	> 25 µM	> 25 µM	> 25 µM	> 25 µM	> 19.7 µM	> 25 µM	> 25 µM	> 25 µM	> 25 µM	> 25 µM	> 25 µM	> 25 µM	> 25 µM	> 25 µM	> 25 µM	> 25 µM
O=C1c2ccn(CCCNC(CO)(CO)CO)c2C(=O)c2c1c(O)c1ccccc1c2O	34.1 µM	> 65.4 µM	10 µM	44 µM	2.54 µM	> 37.2 µM	1.9 µM	13.9 µM	60.7 µM	> 100 µM	43.9 µM	> 90.2 µM	13.6 µM	28.2 µM		13.5 µM	14.6 µM	35.8 µM	13.1 µM	29.7 µM
CSc1nnc(-c2cc3c([nH]c4ccccc43)c(-c3cccc(O)c3)n2)n1-c1ccc(C)cc1	1.32 µM	11.2 µM	9.4 µM	> 100 µM	3.65 µM	> 100 µM	4.35 µM	> 100 µM	3.32 µM	18 µM	2.37 µM	9.27 µM	2.11 µM	6.06 µM	17.2 µM	70.1 µM	3.58 µM	23 µM	5.05 µM	> 100 µM
O=C(NCc1ccco1)C1CCN(S(=O)(=O)c2ccc(Cl)cc2)CC1	35.4 µM	> 100 µM	83.8 µM	> 100 µM	74.1 µM	> 100 µM	59.8 µM	> 100 µM	> 100 µM	> 100 µM	> 100 µM	> 100 µM	> 100 µM	> 100 µM	> 100 µM	> 100 µM	73.8 µM	> 100 µM	36.3 µM	> 100 µM
NC(Cc1cccnn1)C(=O)O (stereo not drawn)		> 100 µM		> 100 µM		> 100 µM		> 100 µM		> 100 µM		> 100 µM		> 100 µM		> 100 µM		> 100 µM		> 100 µM
COc1ccc(/C=C2\COc3ccc(O)c(O)c3C2=O)cc1OC	1.32 µM	3.78 µM	0.377 µM	12.1 µM	1.05 µM	9.13 µM	1.47 µM	3.61 µM	3.91 µM	48.1 µM	1.32 µM	3.25 µM	1.32 µM	2.75 µM	1.73 µM	3.8 µM	1.53 µM	6.82 µM	1.12 µM	2.54 µM
Cc1cc2c3c([n+](C)c4ccc(F)cc4c3c1)-c1cc(F)ccc1N2C	13.7 µM	55 µM	7.17 µM	> 100 µM	3.28 µM	> 100 µM	19.9 µM	> 100 µM	3.41 µM	57.3 µM	4.63 µM	33.9 µM	39.1 µM	> 100 µM	> 100 µM	> 100 µM	19.9 µM	77.7 µM	20.7 µM	68.6 µM
COC(=O)c1c2c(c(C)[n+]([O-])c1C)C(=O)C(NCc1ccc(F)cc1)=CC2=O	0.582 µM	1.84 µM	2.34 µM	8.36 µM	1.98 µM	5.33 µM	0.957 µM	6.28 µM	2.16 µM	4.87 µM	1.73 µM	3.78 µM	1.73 µM	4.04 µM	1.8 µM	3.59 µM	1.79 µM	> 100 µM	1.94 µM	6.32 µM
CC(C)(C)C(=O)c1c(C(F)(F)F)n([O-])c2cc(Cl)c(Cl)cc2[n+]1=O	0.515 µM	1.01 µM	0.619 µM	1.19 µM	0.437 µM	0.987 µM	1.58 µM	2.93 µM	1.6 µM	3.12 µM	0.769 µM	2.11 µM	0.389 µM	0.782 µM	0.642 µM	2.19 µM	1.58 µM	3.03 µM	1.04 µM	
O=C(N=Nc1c(Cl)c(O)c2ccccc2c1O)C(=O)Nc1cccc(C(F)(F)F)c1	1.89 µM	3.43 µM	2.84 µM	8.77 µM	2.93 µM	8.88 µM	1.83 µM	3.88 µM	6.78 µM	28.2 µM	3.74 µM	12.5 µM	1.92 µM	7.12 µM	14.7 µM	28.6 µM	3 µM	16.2 µM	1.97 µM	5.09 µM
